# Experimental data taken from paper PMC3307806 (Molecular Pharmaceutics, 2012).
# Entries after “also recorded” stand apart in the source; their conditions may differ.
# Experiments:
# [1] = tested on: P-gp at the human BBB; details: human PET study; cited from earlier work
# [2] = Pseudo-steady-state blood CsA and plasma Lop/dLop concentrations in rats; details: 60 min; Student's t-test
# [3] = tested on: P-gp (mdr1a/b); details: 7; cited from earlier work
# [4] = target: P-gp at the rat BBB (Rattus norvegicus, UniProt Q6PSM0); details: absence of CsA, 60 min, n=5
# Chain of P-gp at the rat BBB (Q6PSM0 1-1272): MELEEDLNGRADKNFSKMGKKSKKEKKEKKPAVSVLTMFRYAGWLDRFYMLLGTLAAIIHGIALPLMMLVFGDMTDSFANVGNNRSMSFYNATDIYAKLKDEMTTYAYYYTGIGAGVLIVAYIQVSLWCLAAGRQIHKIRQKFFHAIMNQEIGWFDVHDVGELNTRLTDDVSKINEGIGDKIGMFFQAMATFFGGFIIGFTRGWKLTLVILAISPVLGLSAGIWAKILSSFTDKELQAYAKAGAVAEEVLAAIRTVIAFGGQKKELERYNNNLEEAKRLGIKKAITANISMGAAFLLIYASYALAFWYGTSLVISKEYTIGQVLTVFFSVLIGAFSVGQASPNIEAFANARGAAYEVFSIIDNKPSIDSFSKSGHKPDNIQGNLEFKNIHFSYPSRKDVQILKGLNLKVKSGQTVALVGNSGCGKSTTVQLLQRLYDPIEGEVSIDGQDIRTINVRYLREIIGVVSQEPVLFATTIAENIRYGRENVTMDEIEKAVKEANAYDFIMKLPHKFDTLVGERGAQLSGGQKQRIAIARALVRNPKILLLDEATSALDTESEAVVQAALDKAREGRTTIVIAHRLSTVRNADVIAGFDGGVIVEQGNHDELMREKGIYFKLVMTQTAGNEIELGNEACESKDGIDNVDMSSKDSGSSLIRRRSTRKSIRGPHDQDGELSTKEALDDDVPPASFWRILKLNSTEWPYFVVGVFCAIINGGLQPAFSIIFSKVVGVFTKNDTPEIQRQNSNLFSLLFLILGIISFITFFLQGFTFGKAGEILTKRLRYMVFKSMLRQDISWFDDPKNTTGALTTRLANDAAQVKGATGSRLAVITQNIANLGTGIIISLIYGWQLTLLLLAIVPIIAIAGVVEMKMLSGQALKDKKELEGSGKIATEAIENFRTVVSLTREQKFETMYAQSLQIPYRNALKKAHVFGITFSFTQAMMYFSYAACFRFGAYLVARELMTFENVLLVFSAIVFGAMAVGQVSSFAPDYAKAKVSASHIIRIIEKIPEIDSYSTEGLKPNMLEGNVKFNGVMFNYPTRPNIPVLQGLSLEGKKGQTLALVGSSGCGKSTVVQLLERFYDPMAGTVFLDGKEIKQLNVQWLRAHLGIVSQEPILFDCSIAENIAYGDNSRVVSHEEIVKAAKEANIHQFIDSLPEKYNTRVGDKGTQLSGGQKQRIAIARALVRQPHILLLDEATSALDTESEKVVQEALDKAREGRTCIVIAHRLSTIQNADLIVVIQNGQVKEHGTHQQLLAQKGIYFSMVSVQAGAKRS
# [5] = tested on: P-gp; details: verapamil-bodipy or prazosin-bodipy as probe substrate; cited from earlier work
Structure (SMILES),effect of the presence of CsA on pseudo-steady-state plasma concentration [2],difference in potency (EC50) to inhibit P-gp depending on the probe substrate [5] [fold],other results
CN([11CH3])C(=O)C(CCN1CCC(O)(c2ccc(Cl)cc2)CC1)(c1ccccc1)c1ccccc1 [11C-Lop],,,share of radioactivity in the plasma [1]: 76%
"CN(C)C(=O)C(CCN1CCC(O)(c2ccc(Cl)cc2)CC1)(c1ccccc1)c1ccccc1 [Lop, Loperamide]",did not significantly affect; also recorded: not significantly affected,,
Cc1c(O)cccc1C(=O)N[C@@H](CSc1ccccc1)[C@H](O)CN1C[C@H]2CCCC[C@H]2C[C@H]1C(=O)NC(C)(C)C [Nelfinavir],,,increase in brain:blood concentration ratio in mdr1a/b(-/-) vs. wild-type mice [3]: 3400%
"CNC(=O)C(CCN1CCC(O)(c2ccc(Cl)cc2)CC1)(c1ccccc1)c1ccccc1 [dLop, N-desmethyl Loperamide]",did not significantly affect; also recorded: not significantly affected,,brain:plasma concentrations (ratio) corrected for vascular content [4]: 0.11 ± 0.04; brain:plasma concentrations (ratio) ([4]; not corrected for vascular content): 0.14 ± 0.04
CCC(C)n1ncn(-c2ccc(N3CCN(c4ccc(OCC5COC(Cn6cncn6)(c6ccc(Cl)cc6Cl)O5)cc4)CC3)cc2)c1=O (centres unmarked) [itraconazole],,10,
C=C[C@H]1C[N@@]2CC[C@H]1C[C@@H]2[C@@H](O)c1ccnc2ccc(OC)cc12 [quindine],,20,
